Data: publication PMC9143880, “Improving Antimicrobial Activity and Physico-Chemical Properties by Isosteric Replacement of 2-Aminothiazole with 2-Aminooxazole” (Pharmaceuticals, 2022)
Values after ≈ are worked out from the molar mass of the structure shown. Like-named read-outs stand apart in the source and are kept apart here.

Columns and labels:
Escherichia coli FabH = test system: Escherichia coli FabH; set-up: method as in PMID 24561667; conditions: cited from earlier work
G+ and G- bacteria = test system: G+ and G- bacteria; set-up: method as in PMID 24561667; conditions: whole cell, cited from earlier work
[1] = test system: Staphylococcus aureus subsp. aureus CCM 4223 (ATCC 29213); experiment: Antibacterial microdilution broth (EUCAST); format: cell-based; conditions: for MIC: Staphylococcus aureus
[2] = test system: Staphylococcus epidermidis CCM 4418 (ATCC 12228); experiment: Antibacterial microdilution broth (EUCAST); format: cell-based; conditions: for MIC: Staphylococcus epidermidis
[3] = test system: Mycobacterium tuberculosis H37Ra ITM-M006710 (ATCC 9431); experiment: Antimycobacterial MIC, microdilution broth / Alamar Blue (resazurin); format: cell-based; conditions: for MIC: Mycobacterium tuberculosis
[4] = test system: Acinetobacter baumannii DSM 30007 (ATCC 19606); experiment: Antibacterial microdilution broth (EUCAST); format: cell-based; conditions: for MIC: Acinetobacter baumannii
[5] = test system: Trichophyton interdigitale CCM 8377 (ATCC 9533); experiment: Antifungal microdilution broth (EUCAST); conditions: for MIC: Trichophyton interdigitale, 72 h, read-out: MIC TI; for MIC TI: 72h incubation
[6] = test system: Candida krusei CCM 8271 (ATCC 6258); experiment: Antifungal microdilution broth (EUCAST); conditions: for MIC: Pichia kudriavzevii, 24 h, read-out: MIC CK; for MIC CK: 24h incubation
[7] = test system: M. smegmatis DSM 43465 (ATCC 607); experiment: Antimycobacterial MIC, microdilution broth / resazurin; format: cell-based; conditions: Mycolicibacterium smegmatis; resazurin after 48 h; read-out: MIC M. smegmatis
[8] = test system: M. aurum DSM 43999 (ATCC 23366); experiment: as above; format: cell-based; conditions: Mycolicibacterium aurum; resazurin after 72 h; read-out: MIC M. aurum
HepG2 cells = experiment: HepG2 cytotoxicity screening (CellTiter 96); format: cell-based, human; conditions: for IC50: Homo sapiens, HepG2, 24 h, 24 h incubation, CellTiter 96, * above highest tested concentration, ** limited by insolubility in medium
[9] = test system: Staphylococcus aureus subsp. aureus (MRSA) CCM 4750 (ATCC 43300); experiment: Antibacterial microdilution broth (EUCAST); format: cell-based; conditions: for MIC: Staphylococcus aureus
[10] = RP-UHPLC lipophilicity parameter log k’w; format: physicochemical; conditions: for log k’w: RP-UHPLC, acetonitrile/water, log k extrapolated to 0% acetonitrile; for logkw: experimental lipophilicity parameter
How it was run: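 Retention was measured once per eluent composition: subtype I at 40/45/50% and subtype II at 20/30/40% acetonitrile in water, isocratic RP-UHPLC. log k values from these runs gave the lipophilicity index log k’w.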

[11] = test system: Pseudomonas aeruginosa CCM 3955 (ATCC 27853); experiment: Antibacterial microdilution broth (EUCAST); format: cell-based; conditions: for MIC: Pseudomonas aeruginosa
[12] = test system: Escherichia coli CCM 3954 (ATCC 25922); experiment: Antibacterial microdilution broth (EUCAST); format: cell-based; conditions: for MIC: Escherichia coli
[13] = test system: Candida albicans CCM 8320 (ATCC 24433); experiment: Antifungal microdilution broth (EUCAST); conditions: for MIC: Candida albicans, 24 h, read-out: MIC CA; for MIC CA: 24h incubation
[14] = test system: Candida tropicalis CCM 8264 (ATCC 750); experiment: Antifungal microdilution broth (EUCAST); conditions: for MIC: Candida tropicalis, 24 h, read-out: MIC CT; for MIC CT: 24h incubation
[15] = test system: Enterococcus faecalis CCM 4224 (ATCC 29212); experiment: Antibacterial microdilution broth (EUCAST); format: cell-based; conditions: for MIC: Enterococcus faecalis
[16] = test system: Candida parapsilosis CCM 8260 (ATCC 22019); experiment: Antifungal microdilution broth (EUCAST); conditions: for MIC: Lodderomyces parapsilosis, 24 h, read-out: MIC CP; for MIC CP: 24h incubation
[17] = test system: Lichtheimia corymbifera CCM 8077; experiment: Antifungal microdilution broth (EUCAST); conditions: for MIC: Lichtheimia corymbifera, CCM8077, 24 h, read-out: MIC LC; for MIC LC: 24h incubation
[18] = test system: Aspergillus fumigatus ATCC 204305; experiment: Antifungal microdilution broth (EUCAST); conditions: for MIC: Aspergillus fumigatus, ATCC204305, 24 h, read-out: MIC AF; for MIC AF: 24h incubation
[19] = test system: Aspergillus flavus CCM 8363; experiment: Antifungal microdilution broth (EUCAST); conditions: for MIC: Aspergillus flavus, CCM8363, 24 h, read-out: MIC AFla; for MIC AFla: 24h incubation
[20] = test system: bacterial MetAP (S. aureus, E. coli) vs hMetAP; set-up: method as in PMID 15664828; conditions: tested against S. aureus; cited from earlier work
[21] = test system: M. avium DSM 44156 (ATCC 25291); experiment: Antimycobacterial MIC, microdilution broth / resazurin; format: cell-based, Mycobacterium avium; conditions: Mycobacterium avium; resazurin after 96 h; read-out: MIC M. avium
PC12 cells = test system: PC12 cells; set-up: method as in PMID 19125579; conditions: acting as a PARP inhibitor; cited from earlier work
[22] = test system: M. kansasii DSM 44162 (ATCC 12478); experiment: Antimycobacterial MIC, microdilution broth / resazurin; format: cell-based; conditions: Mycobacterium kansasii, read-out: MIC M. kansasii
[23] = test system: Mycobacterium tuberculosis H37Ra ITM-M006710 (ATCC 9431); set-up: method as in PMID 30108959; conditions: cited from earlier work
[24] = test system: Klebsiella pneumoniae CCM 4415 (ATCC 10031); experiment: Antibacterial microdilution broth (EUCAST); format: cell-based; conditions: internal quality control, 24 h
[25] = 24h incubation, read-out: MIC SA
[26] = 24h incubation, read-out: MIC SE
[27] = 120 h, Middlebrook 7H9, resazurin after 120 h, read-out: Mtb H37Ra MIC
[28] = 24h incubation, read-out: MIC AB
[29] = 24h incubation, read-out: MIC MRSA
[30] = 72h incubation, read-out: MIC PA
[31] = 24h incubation, read-out: MIC EC
[32] = 24h incubation, read-out: MIC EF
[33] = internal quality control, 95% growth inhibition, 530 nm, 24 h, read-out: MIC (spectrophotometric detection)
[34] = internal quality control, naked eye, 24 h, read-out: MIC (visual detection)

O=C(Nc1nc(-c2ccc(Br)cc2)cs1)c1cccc(Cl)c1 [C]
IC50 (Escherichia coli FabH): 9.3 µM | MIC (G+ and G- bacteria; recalculated to µM): 7.9 to 31.8 µM | MIC (G+ and G- bacteria): 3.13 to 12.5 µg/mL

O=C(Nc1nccs1)c1ccccn1 [Compound 1a]
MIC [1, 25]: > 500 µM | MIC [2, 26]: > 500 µM | MIC [3, 27]: 31.2 µg/mL | MIC [4, 28]: > 500 µM | MIC [5]: 500 µM (≈ 103 µg/mL) | MIC [6]: 500 µM (≈ 103 µg/mL) | MIC [7]: 62.5 µg/mL (≈ 305 µM) | MIC [8]: 7.81 µg/mL (≈ 38.1 µM) | IC50 (HepG2 cells): > 1000 µM | MIC [9, 29]: > 500 µM | log k’w [10]: 1.857 | logkw [10]: 1.857 | MIC [11, 30]: > 500 µM | MIC [12, 31]: > 500 µM | MIC [13]: > 500 µM | MIC [14]: > 500 µM | MIC [15, 32]: > 500 µM | MIC [16]: 500 µM (≈ 103 µg/mL) | MIC [17]: > 500 µM | MIC [18]: 500 µM (≈ 103 µg/mL) | MIC [19]: > 500 µM | selectivity towards bacterial MetAP over human homologue [20]: 100 fold

O=C(Nc1nc(-c2ccccc2)cs1)c1ccncc1 [Compound 13a]
MIC [1, 25]: > 125 µM | MIC [2, 26]: > 125 µM | Mtb H37Ra MIC ([3]; Middlebrook 7H9, resazurin after 120 h): 7.81 µg/mL | MIC [3, 27]: 3.91 to 7.81 µg/mL | MIC ([3]; recalculated from µg/mL, read-out: MICH37Ra): 27.8 µM | MIC [4, 28]: > 125 µM | MIC [21]: ≥ 500 µg/mL | MIC [5]: > 125 µM | cytoprotective effect (PC12 cells): moderate cytoprotective effect | MIC [6]: > 125 µM | MIC [7]: ≥ 500 µg/mL | MIC [8]: ≥ 500 µg/mL | IC50 (HepG2 cells): > 100 µM | SI (HepG2 cells; SI = IC50 (µM) HepG2 / MICH37Ra (µM)): >3.6 | MIC [9, 29]: > 125 µM | log k’w [10]: 2.190 | logkw [10]: 2.19 | MIC [11, 30]: > 125 µM | MIC [12, 31]: > 125 µM | MIC [13]: > 125 µM | MIC [14]: > 125 µM | MIC [15, 32]: > 125 µM | MIC [16]: > 125 µM | MIC [17]: > 125 µM | MIC ([22]; 96 h): 7.81 µg/mL (≈ 27.8 µM) | MIC [18]: > 125 µM | MIC [19]: > 125 µM

O=C(Nc1nc(-c2ccccc2)cs1)c1cnccn1 [Compound 17a]
MIC SA ([1]; 24h incubation): insoluble | MIC SE ([2]; 24h incubation): insoluble | MIC AB ([4]; 24h incubation): insoluble | MIC TI [5]: insoluble | MIC CK [6]: insoluble | MIC [7]: > 250 µg/mL | MIC MRSA ([9]; 24h incubation): insoluble | log k’w [10]: 2.365 | logkw [10]: 2.365 | MIC PA ([11]; 72h incubation): insoluble | MIC EC ([12]; 24h incubation): insoluble | MIC CA [13]: insoluble | MIC CT [14]: insoluble | MIC EF ([15]; 24h incubation): insoluble | MIC CP [16]: insoluble | MIC LC [17]: insoluble | MIC ([22]; resazurin after 96 h): > 50 µg/mL | Mtb H37Ra MIC [23]: >50 [11] µg/mL | MIC AF [18]: insoluble | MIC AFla [19]: insoluble

O=C(Nc1nc(-c2ccccc2)cs1)c1cnc(Cl)cn1 [Compound 18a]
MIC SA ([1]; 24h incubation): insoluble | MIC SE ([2]; 24h incubation): insoluble | MIC AB ([4]; 24h incubation): insoluble | MIC [21]: > 100 µg/mL | MIC TI [5]: insoluble | MIC CK [6]: insoluble | MIC [7]: > 500 µg/mL | MIC MRSA ([9]; 24h incubation): insoluble | log k’w [10]: 3.173 | logkw [10]: 3.173 | MIC PA ([11]; 72h incubation): insoluble | MIC EC ([12]; 24h incubation): insoluble | MIC CA [13]: insoluble | MIC CT [14]: insoluble | MIC EF ([15]; 24h incubation): insoluble | MIC CP [16]: insoluble | MIC LC [17]: insoluble | MIC ([22]; resazurin after 96 h): > 100 µg/mL | Mtb H37Ra MIC [23]: >100 [11] µg/mL | MIC AF [18]: insoluble | MIC AFla [19]: insoluble

CNC(C)C1CCC(N)C(OC2C(N)CC(N)C(OC3OCC(C)(O)C(NC)C3O)C2O)O1 (stereo not shown) [gentamicin, reference compound]
MIC [1, 33]: 1 µg/mL | MIC [1, 34]: 0.5 µg/mL | MIC [2, 33]: 0.0625 µg/mL | MIC [2, 34]: 0.0625 µg/mL | MIC [4, 33]: 8 µg/mL | MIC [4, 34]: 8 µg/mL | MIC [9, 33]: > 8 µg/mL | MIC [9, 34]: > 8 µg/mL | MIC [11, 33]: 0.5 µg/mL | MIC [11, 34]: 0.5 µg/mL | MIC [12, 33]: 1 µg/mL | MIC [12, 34]: 1 µg/mL | MIC [15, 33]: > 8 µg/mL | MIC [15, 34]: > 8 µg/mL | MIC ([24]; 95% growth inhibition, 530 nm, read-out: MIC (spectrophotometric detection)): 0.5 µg/mL (≈ 1.05 µM) | MIC ([24]; naked eye, read-out: MIC (visual detection)): 0.5 µg/mL (≈ 1.05 µM)
